Drawing on ChEMBL document CHEMBL3044541, “Control of crown rot-causing fungal pathogens of banana by inorganic salts and a surfactant” (Crop Prot, 2007), this text covers inhibition and Activity for 3 compounds.

Series [1] has as its system Fusarium verticillioides. The series can be described thus: Antifungal activity against Fusarium verticillioides assessed as inhibition of conidium germination at 6 g/l incubated for 15 min followed by compound washout measured after 7 days by microscopic analysis in presence of surfactant APSA 80. The class given is functional, organism-based.
The test system of series [2] is Musa acuminata AAA Group. The series can be described thus: Phytotoxicity against Musa acuminata AAA Group (Cavendish banana) assessed as skin burn incubated for 15 min followed by compound washout measured after 1 to 3 weeks in presence of surfactant APSA 80 relative to control. The settings on record: in vivo. It counts as organism-based.
In series [3] the test system is Fusarium verticillioides. The series can be described thus: Antifungal activity against Fusarium verticillioides assessed as inhibition of conidium germination at 6 g/l incubated for 15 min followed by compound washout measured after 2 days by microscopic analysis in absence of surfactant APSA 80. It counts as functional, organism-based.
Series [4] deals with Colletotrichum musae. Nature of the series: Antifungal activity against Colletotrichum musae assessed as inhibition of conidium germination at 6 g/l incubated for 15 min followed by compound washout measured after 7 days by microscopic analysis in presence of surfactant APSA 80. It counts as functional, organism-based.
In series [5] the test system is Colletotrichum musae. Nature of the series: Growth inhibition of Colletotrichum musae assessed as inhibition of mycelial growth up to 160 g/l incubated for 15 min followed by compound washout measured after 7 days in presence of surfactant APSA 80. The class given is functional, organism-based.
The subject of series [6] is Musa acuminata AAA Group. The series can be described thus: Phytotoxicity against Musa acuminata AAA Group (Cavendish banana) assessed as discoloration incubated for 15 min followed by compound washout measured after 1 to 3 weeks in presence of surfactant APSA 80 relative to control. The class given is organism-based. The settings on record: in vivo.
Series [7] deals with Thielaviopsis paradoxa. Nature of the series: Antifungal activity against Ceratocystis paradoxa assessed as inhibition of conidium germination at 6 g/l incubated for 15 min followed by compound washout measured after 7 days by microscopic analysis in presence of surfactant APSA 80. The class given is functional, organism-based.
In series [8] the test system is Fusarium verticillioides. Nature of the series: Growth inhibition of Fusarium verticillioides assessed as inhibition of mycelial growth up to 160 g/l incubated for 15 min followed by compound washout measured after 7 days in presence of surfactant APSA 80. The class given is functional, organism-based.
In series [9] the test system is Lasiodiplodia theobromae. The series can be described thus: Growth inhibition of Lasiodiplodia theobromae assessed as inhibition of mycelial growth up to 160 g/l incubated for 15 min followed by compound washout measured after 7 days in presence of surfactant APSA 80. The class given is functional, organism-based.
Series [10] relates to Thielaviopsis paradoxa. Nature of the series: Antifungal activity against Ceratocystis paradoxa assessed as inhibition of conidium germination at 6 g/l incubated for 15 min followed by compound washout measured after 2 days by microscopic analysis in absence of surfactant APSA 80. The class given is functional, organism-based.
Series [11] deals with Colletotrichum musae. Nature of the series: Antifungal activity against Colletotrichum musae assessed as inhibition of conidium germination at 6 g/l incubated for 15 min followed by compound washout measured after 2 days by microscopic analysis in absence of surfactant APSA 80. The class given is functional, organism-based.
The test system of series [12] is Lasiodiplodia theobromae. Nature of the series: Antifungal activity against Lasiodiplodia theobromae assessed as inhibition of conidium germination at 6 g/l incubated for 15 min followed by compound washout measured after 7 days by microscopic analysis in presence of surfactant APSA 80. It counts as functional, organism-based.
Series [13] concerns Lasiodiplodia theobromae. Nature of the series: Antifungal activity against Lasiodiplodia theobromae assessed as inhibition of conidium germination at 6 g/l incubated for 15 min followed by compound washout measured after 2 days by microscopic analysis in absence of surfactant APSA 80. The class given is functional, organism-based.
Series [14] relates to Fusarium verticillioides. The series can be described thus: Antifungal activity against Fusarium verticillioides assessed as inhibition of conidium germination at 5 g/l incubated for 15 min followed by compound washout measured after 7 days by microscopic analysis in presence of surfactant APSA 80. The class given is functional, organism-based.
The test system of series [15] is Lasiodiplodia theobromae. The series can be described thus: Antifungal activity against Lasiodiplodia theobromae assessed as inhibition of conidium germination at 5 g/l incubated for 15 min followed by compound washout measured after 2 days by microscopic analysis in absence of surfactant APSA 80. It counts as functional, organism-based.
For series [16], the system named is Colletotrichum musae. Nature of the series: Antifungal activity against Colletotrichum musae assessed as inhibition of conidium germination at 5 g/l incubated for 15 min followed by compound washout measured after 2 days by microscopic analysis in absence of surfactant APSA 80. The class given is functional, organism-based.
The subject of series [17] is Lasiodiplodia theobromae. The series can be described thus: Antifungal activity against Lasiodiplodia theobromae assessed as inhibition of conidium germination at 5 g/l incubated for 15 min followed by compound washout measured after 7 days by microscopic analysis in presence of surfactant APSA 80. It counts as functional, organism-based.
Series [18] has as its system Colletotrichum musae. The series can be described thus: Growth inhibition of Colletotrichum musae assessed as concentration required for inhibition of mycelial growth incubated for 15 min followed by compound washout measured after 7 days in presence of surfactant APSA 80. The class given is functional.
Series [19] concerns Thielaviopsis paradoxa. The series can be described thus: Antifungal activity against Ceratocystis paradoxa assessed as inhibition of conidium germination at 5 g/l incubated for 15 min followed by compound washout measured after 7 days by microscopic analysis in presence of surfactant APSA 80. It counts as functional, organism-based.
The subject of series [20] is Colletotrichum musae. The series can be described thus: Antifungal activity against Colletotrichum musae assessed as inhibition of conidium germination at 5 g/l incubated for 15 min followed by compound washout measured after 7 days by microscopic analysis in presence of surfactant APSA 80. The class given is functional, organism-based.
Series [21] concerns Fusarium verticillioides. The series can be described thus: Antifungal activity against Fusarium verticillioides assessed as inhibition of conidium germination at 5 g/l incubated for 15 min followed by compound washout measured after 2 days by microscopic analysis in absence of surfactant APSA 80. The class given is functional, organism-based.
The subject of series [22] is Lasiodiplodia theobromae. The series can be described thus: Growth inhibition of Lasiodiplodia theobromae assessed as concentration required for inhibition of mycelial growth incubated for 15 min followed by compound washout measured after 7 days in presence of surfactant APSA 80. It counts as functional.
The subject of series [23] is Fusarium verticillioides. The series can be described thus: Growth inhibition of Fusarium verticillioides assessed as concentration required for inhibition of mycelial growth incubated for 15 min followed by compound washout measured after 7 days in absence of surfactant APSA 80. It counts as functional.
Series [24] has as its system Lasiodiplodia theobromae. The series can be described thus: Growth inhibition of Lasiodiplodia theobromae assessed as concentration required for inhibition of mycelial growth incubated for 15 min followed by compound washout measured after 7 days in absence of surfactant APSA 80. The class given is functional.
Series [25] deals with Colletotrichum musae. Nature of the series: Growth inhibition of Colletotrichum musae assessed as concentration required for inhibition of mycelial growth incubated for 15 min followed by compound washout measured after 7 days in absence of surfactant APSA 80. The class given is functional.

Activity calls are given as the source filed them. No cut-off for these calls is given here.

Turning to `[Cl-].[Na+]` [SODIUM CHLORIDE], the inhibition entry in series [1], in series [3], in [4], in series [7], in [10] and in series [11] was “Active” in each case. The inhibition entry in series [12] and in [13] was “Active” throughout. For the same compound, the Activity result in [2] and in [6] was “Toxic” each time. The outcome in series [5], in series [8] and in series [9] was inactive.
For the compound `[Ca+2].[Cl-].[Cl-]` [CALCIUM CHLORIDE], the inhibition entry in series [14], in series [15], in [16], in series [17], in series [19] and in series [20] was “Active” throughout. Moreover, the inhibition result in series [21] is “Active”. Moreover, the Activity in series [18] turned out to be 140 g/L; in [22], 100 g/L. The outcome in series [8] was inactive.
For the compound `[Na+].[O-]Cl` [SODIUM HYPOCHLORITE], the inhibition result in series [14], in series [15], in series [16], in series [17], in series [19] and in series [20] was “Active” throughout. Further, the inhibition result in [21] is “Active”. Also, the Activity result is recorded as “Toxic” in [2]; “Toxic” in series [6]; 70 g/L in [23]; 20 g/L in [24]; 20 g/L in [22]; 50 g/L in series [25].
